≈ marks a conversion by molar mass, not a printed value.
Key:
[1] = Solubility of clonazepam in glycol ethers at 25° C.
Experimental: 10 mg of clonazepam was weighed into glass vials used in the Pfeiffer mono-dose spray system (Pfeiffer of America, Princeton, N.J.). Four samples of each of four solvents were prepared as follows. 130-μL of each solvent was pipetted into the vial, which was then stoppered with a black chlorobutyl rubber stopper.
The vials were removed from the chamber, placed inside polyethylene centrifuge vials, and centrifuged for 2 minutes at 5000 rpm. 10 μL of liquid was then sampled from each vial, accurately weighed, and diluted with 1 mL of acetonitrile. The drug concentration was analyzed by UV using an Agilent HPLC system with no column, 10 μL injection volume, acetonitrile mobile phase, 0.3 mL/min and UV detection at 350 nm.

[2] = Human pharmacokinetic, safety and tolerability study (oral, intravenous, intranasal cross-over)
Experimental: The human pharmacokinetics, safety, and tolerability of the clonazepam compositions of the present invention formulated for intranasal delivery for therapeutic applications are evaluated using standard clinical procedures. Clonazepam compositions formulated for intranasal delivery are provided, for example, for application by the participants to intranasal mucosa.
A primary objective of initial studies in humans is to determine and compare pharmacokinetic profiles of three dosage forms of clonazepam: oral, i.v., and intranasal, following single administration. An example of such a study in humans is a cross-over study performed in 12 healthy male volunteers. Plasma and urine level of clonazepam and 7-amino-clonazepam are determined, for example, using HPLC and UV detection. […] Further the initial studies in humans are used to determine local tolerability of intranasal formulation using questionnaire and the Visual Analog Scale (VAS). VAS is a validated instrument that has been used in numerous studies to quantify subjective opening of the nasal passages. In addition, cognitive, sleepiness and mood effects are evaluated using questionnaires and scales (see, e.g., Example 10 below). Further, attention and vigilance may be evaluated using, for example, LEEDS Psychomotor Multiple Choice Reaction Time (MCRT) testing.
A human pharmacokinetic study was carried out as described in Example 8.
15 young, healthy male volunteers received a single dose of 1 mg clonazepam by oral, intravenous and intranasal routes in a three-period cross-over design.

[3] = Psychomotor, subjective and cognitive tests; assay type: in vivo; details: human
Source text: D. Neurocognative Tests: The Cognitive Drug Research (CDR) computerized assessment system is specifically designed to evaluate the effects of compounds on the quality of cognitive functioning in subjects and patients in all phases of clinical development. The CDR system is a widely used computerized cognitive assessment system (see, for example, Ebert U, et al., “Pharmacokinetics and pharmacodynamics of scopolamine after subcutaneous administration,” Journal of Clinical Pharmacology 38: 720-726 (1998); Harrington F, et al., “Cognitive Performance in Hypertensive and Normotensive Older Subjects,” Hypertension 36: 1079-1082 (2000); Preece A W, et al., “Effect of a 915-MHz simulated mobile phone signal on cognitive function in man,” International Journal of Radiation Biology 75: 447-456 (1999); and Walker M P, et al., “Quantifying fluctuation in Dementia with Lewy Bodies, Alzheimer's disease and vascular dementia,” Neurology 54: 1616-1625 (2000)) and has been used to evaluate a diverse range of pharmaceutical compounds.
This example describes the pharmacodynamic effects of clonazepam compositions formulated for intranasal administration using neurocognitive tests. A selection of tests from a computerized assessment system of Cognitive Drug Research (“CDR,” Reading, United Kingdom) is employed. The study is typically a double-blind, randomized, placebo-controlled cross-over design. As a control, the group may receive clonazepam intravenous (i.v.) and placebo at selected dosages.
Cognitive function is typically assessed using an attentional task battery to assess attention and a word recognition task to assess secondary memory. […]
Tests may be administered, for example, in the following order: Word Presentation; Simple Reaction Time; Digit Vigilance; Choice Reaction Time; and Word Recognition. […] Summary statistics (m, number; mean; sem, standard error; sd, standard deviation; median; min, minimum; max, maximum; and missing) are typically calculated for each measure at each time point by dose. […]

[4] = Solubility of clonazepam in binary mixtures of matrices; details: binary mixture with glycofurol, inferred from FIG. 2
Experimental: Further, the solubility of clonazepam in binary mixtures of Transcutol® (TC), triacetin (TA), glycofurol (GF) and propylene glycol (PG) was evaluated. Solubility limits of clonazepam were determined for the following formulations:
Excess drug (50 mg) was capped with about 500 μL of the solvent matrix in a 1.5 mL microfuge tube and the solution was mixed on a vortex shaker for several minutes. Thereafter, the solution was placed in an ultrasonic bath at 25° C. for 45 minutes. The temperature was regulated with a thermometer and controlled by adding ice into the bath. After 15 minutes of standing, the solutions were centrifuged at 3,000×g for 30 minutes. Solutions were then stored for 16 hours at 25° C. in an ICH cabinet and protected from light.

[5] = In vitro permeation across sheep nasal mucosa, Franz cells; details: saturated solution, Franz cell, 7 h, FIG. 1
Experimental: Freshly excised sheep nasal mucosa was used and prepared following a standard protocol. The excised sheep nasal mucosa was cleaned by rinsing with de-ionized water and either used fresh or placed flat over a filter paper and stored frozen until used.
(ii) Dosing and Sample Collection—Franz cell studies: Individually calibrated Franz cells with an average surface area and volume of approximately 0.6 cm^2 and 2 mL, respectively, were employed to determine the permeation characteristics of drug. The nasal sheep mucosa was mounted between the two halves of the Franz cell with the mucosal side facing the donor compartment. The receptor compartment was filled with receiver fluid, stirred constantly with a PTFE-coated magnetic follower driven by a submersible magnetic stirrer bed and maintained at 37° C. in a water bath. Approximately 1 mL (infinite dose) of saturated drug solution was placed into the donor compartment and covered with […] ® (Pechiney Plastic Packaging, Inc., Chicago, Ill.) throughout the study. Following the application of the drug solution, the receiver fluid (200 μL) was removed from the receptor compartment via the sampling arm after sampling times (t=1, 2, 3, 4, 5, 6 and 7 h) and analyzed via HPLC. Each sample removed was replaced by an equal volume of fresh pre-warmed (37° C.) receiver fluid. […]

SMILES: O=C1CN=C(c2ccccc2Cl)c2cc([N+](=O)[O-])ccc2N1 [Clonazepam, 5-(2-chlorophenyl)-1,3-dihydro-7-nitro-2H-1,4-benzodiazepin-2-one]
- Solubilities (mg/mL) of Clonazepam in Solvent/Water Solutions ([1]; 1,2-dimethyxoethane, 100% solvent / 0% water, 25° C. (neat solvent value from Example 11, included for reference)): 39.3 mg/mL
- Solubility ([1]; in 1,2-dimethyxoethane, 25 C.): 39.3 mg/mL (≈ 124 mM)
- Cmax of the intranasal route as % of that of the intravenous route ([2]; 1 mg): 17%
- Cmax of the intranasal route as % of that of the oral route ([2]; 1 mg): 93%
- median Tmax ([2]; 1 mg single dose, intravenous, 15 volunteers): 6 min
- mean Cmax (mean ±SD) ([2]; 1 mg, intranasal route): 7.12 ± 3.81 ng/mL
- mean Cmax (mean ±SD) ([2]; 1 mg, intravenous route): 42.5±10.8
- mean Cmax (mean ±SD) ([2]; 1 mg, oral route): 7.64 ± 1.74 ng/mL
- subjects reporting somnolence ([2]; after intranasal dosing, 10 of 15): approximately 67%
- subjects reporting nasal discomfort ([2]; after intranasal dosing, 12 of 15): approximately 80%
- subjects reporting sedation ([2]; after intravenous dosing): 3/15
- subjects reporting somnolence ([2]; after intravenous dosing): 11/15
- subjects reporting somnolence or sedation ([2]; after intravenous dosing): Approximately 93%
- subjects reporting somnolence ([2]; after oral dosing, 13 of 15): approximately 87%
- time at which effects were first apparent (Leeds Psychomotor Test, Bond and Lader VAS, Karolinska Sleepiness Scale) ([3]; intranasal administration): approximately 30 minutes
- time at which effects were first apparent (Leeds Psychomotor Test, Bond and Lader VAS, Karolinska Sleepiness Scale) ([3]; intravenous administration): approximately 30 minutes
- time at which effects were first apparent (Leeds Psychomotor Test, Bond and Lader VAS, Karolinska Sleepiness Scale) ([3]; oral administration): approximately 2 hours
- solubility in the 50:50 mixture [4]: about 36.4 mg/mL
- permeation across sheep nasal mucosa [5]: at steady state
